What all share (test): NCI-60 cell line screen, 48 h
The subject of test [1] is A549 NSCLC.
The subject of test [2] is CCRF-CEM leukemia.
For test [3], the system named is HL-60(TB) leukemia.
Test [4] concerns HOP-62 NSCLC.
Test [5] deals with KM12 colon.
Test [6] has as its system M14 melanoma.
Test [7] deals with SF-268 CNS.
The test system of test [8] is SK-OV-3 ovarian.
Test [9] has as its system TK-10 renal.
Test [10] concerns UACC-257 melanoma.

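Method: 48-hour compound exposure of cells in 96-well plates, five concentrations, linear interpolation of endpoints. GI50 = concentration required for 50% inhibition of growth. TGI: total growth inhibition.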 Some results are limits rather than exact numbers.

For the molecule `C/C(=N\NC(=S)N1CCC1)c1ccccn1`, the GI50 is 0.0527 µM in [1]; 0.00658 µM in [2]; 0.0045 µM in test [3]; 0.0223 µM in [4]; 0.0477 µM in test [5]; 0.0229 µM in test [6]. Besides, the GI50 in test [7] was 0.00557 µM; in [9], 0.00375 µM; in test [10] it was 0.00326 µM. Further, the TGI was 37.5 µM in test [1]; 3.57 µM in test [3]; more than 33.9 µM in [4]; 46.7 µM in test [5]; 1.84 µM in test [6]; more than 100 µM in [7]. Besides, the TGI in test [8] is 5.7 µM; in test [9], more than 79.3 µM; in test [10] it was 1.42 µM.

`COc1ccc(-c2cnc(-c3ccncc3-c3cccc(OC)c3)o2)cc1`: the GI50 was 0.0409 µM in test [1]; 0.0389 µM in [2]; 0.024 µM in test [3]; 0.0531 µM in test [4]; 0.0471 µM in test [5]; 0.0304 µM in test [6]. Further, the GI50 in [7] is 0.0783 µM; in [8], 0.0424 µM; in test [9], 11.7 µM; in [10], 0.403 µM. The TGI was determined as 11.3 µM in test [1]; 16 µM in test [2]; 0.0968 µM in test [3]; 23.8 µM in test [4]; 1.82 µM in test [5]; 14.2 µM in test [6]. The TGI worked out at 16.9 µM in test [7], 17.1 µM in test [8], 42.1 µM in test [9] and 15.8 µM in test [10].

For `CN(C)CCNC(=O)Nc1ccc(N(C)c2ccnc(Nc3ccc(CS(C)(=O)=O)cc3)n2)cc1`, the GI50 in [1] is more than 25 µM; in [2], 16.5 µM; in test [3], more than 25 µM; in test [4] it was more than 25 µM; in [5], 9.88 µM; in test [6], more than 25 µM. The GI50 in test [7], in test [8], in [9] and in test [10] was more than 25 µM throughout. Further, the TGI in test [1], in [2], in [3], in test [4], in test [5] and in test [6] was more than 25 µM throughout. In addition, the TGI in [7], in test [8], in test [9] and in test [10] was more than 25 µM each time.

Regarding `OCC1OC(OC2(CO)OC(CO)C(O)C2O)C(O)C(O)C1O` (stereo not drawn), the GI50 in test [1], in [2], in test [3], in test [4], in test [5] and in [6] was more than 100 µM throughout. Further, the GI50 in [7], in [8], in [9] and in test [10] was more than 100 µM in each case. In addition, the TGI in test [1], in test [2], in [3], in test [4], in test [5] and in [6] was more than 100 µM in each case. The TGI in [7], in test [8], in test [9] and in test [10] was more than 100 µM in each case.

In the case of `Cc1ccc(-n2c3nc(=O)n(C)c(=O)c-3nc3ccccc32)c(C)c1`, the TGI in test [1] is 20.4 µM; in test [2], 41.6 µM; in test [3], 29.2 µM; in [4], more than 100 µM; in test [5], 26.5 µM; in test [6] it was 18.6 µM. Also, the TGI in [7] is 34.8 µM; in [8] it was 75.8 µM; in test [9], 27.2 µM; in test [10], 12.6 µM.

For the molecule `OCCNc1nc2ccccc2c2[nH]c3ccccc3c12`, the GI50 in test [1] was 0.394 µM; in test [2], 0.654 µM; in test [3], 0.349 µM; in [4] it was 0.583 µM; in test [5], 0.483 µM; in test [6] it was 0.699 µM. Also, the GI50 in [7] was 0.519 µM; in test [8] it was 0.329 µM; in test [9] it was 0.744 µM; in test [10], 0.944 µM. Further, the TGI in [1] worked out at 2.19 µM; in test [2] it was 10.7 µM; in test [3] it was 1.95 µM; in test [4], 6.66 µM; in test [5], 4.63 µM; in test [6], 2.03 µM. Also, the TGI in [7] came out at 3.42 µM; in test [8] it was 2.07 µM; in [9] it was 5.16 µM; in test [10] it was 2.33 µM.

In the case of `O=C1C=CC2(O)OCC3C=C4O[C@@H]5OC6(CCCCC6)O[C@@H]5C4[C@@H]2[C@@H]13` (stereo partly drawn), the TGI is more than 100 µM in test [1]; 45.8 µM in test [2]; 42.1 µM in [3]; more than 100 µM in test [4]; more than 100 µM in test [5]; 43.8 µM in [6]. Further, the TGI is more than 100 µM in test [7], more than 100 µM in test [8], 48.6 µM in test [9] and 35 µM in [10].

On to `O=C(Nc1nc(=S)[nH][nH]1)C(=O)C(c1cnc2ccc([N+](=O)[O-])cc2n1)[N+](=O)[O-]` (stereo not drawn), for which the TGI in test [1], in [2], in test [3], in [4], in test [5] and in [6] was more than 100 µM in each case. The TGI in [7], in [8], in test [9] and in test [10] was more than 100 µM each time.

Turning to `C#COc1cccc(Nc2ncnc3cc(NC(=O)[C@@H](C)Cl)ccc23)c1`, the GI50 in test [1] was 9.86 µM; in test [2], 7.45 µM; in [3], 2.02 µM; in test [4] it was 8.18 µM; in [5], 3.25 µM; in [6], 3.92 µM. The GI50 was 16.9 µM in [7], 19.6 µM in test [8], 36.5 µM in test [9] and more than 62.5 µM in [10]. Further, the TGI in test [1] was more than 62.5 µM; in [2], more than 62.5 µM; in test [3], 8.25 µM; in [4] it was more than 62.5 µM; in test [5] it was more than 62.5 µM; in test [6], more than 62.5 µM. The TGI in test [7], in [8], in test [9] and in [10] was more than 62.5 µM in each case.

For `Cn1cc(-c2ccc3ncc(-c4ccc(CC(=O)Nc5cc(C(C)(C)C)nn5C)cc4)cc3c2)cn1`, the GI50 in test [1] is 1.44 µM; in test [2], 0.81 µM; in test [3] it was 1.2 µM; in [4] it was 3.96 µM; in test [5], 0.151 µM; in test [6], 0.984 µM. Moreover, the GI50 in [7] is 1.45 µM; in [8] it was 0.934 µM; in [9], 1.52 µM; in [10] it was 1.45 µM. Moreover, the TGI in test [1] is more than 20 µM; in [2], 16.6 µM; in test [3], 8.28 µM; in test [4], more than 20 µM; in test [5], 3 µM; in test [6], more than 20 µM. Further, the TGI in test [7], in test [8], in [9] and in test [10] was more than 20 µM in each case.

Regarding `CC(C)(C)OC(=O)N[C@H]1CC(=O)c2ccccc2N(CC(=O)O)C1=O`, the TGI in test [1], in test [2], in test [3], in test [4], in test [5] and in test [6] was more than 100 µM throughout. For the same molecule, the TGI in test [7], in test [8], in [9] and in test [10] was more than 100 µM throughout.

As to `CC(=O)Nc1cccc(C#Cc2cncnc2Nc2ccc(OCc3cccc(F)c3)c(Cl)c2)c1`, the GI50 was 5.87 µM in [1]; 10.2 µM in test [2]; 7.59 µM in test [3]; more than 19.8 µM in test [4]; 9.64 µM in test [5]; 10.8 µM in test [6]. Moreover, the GI50 is 16.6 µM in test [7], 6.14 µM in test [8], 1.6 µM in test [9] and 13.7 µM in test [10]. The TGI in [1], in test [2], in test [3], in test [4], in test [5] and in test [6] was more than 25 µM each time. The TGI in test [7] was more than 25 µM; in [8], more than 25 µM; in test [9], 16.3 µM; in test [10] it was more than 25 µM.

Turning to `O=c1[nH]c2ccccc2cc1-c1nnc(Cc2ccccc2)o1`, the GI50 is 15.7 µM in test [1]; 1.7 µM in test [2]; 3.43 µM in test [3]; 12.6 µM in test [4]; 10.4 µM in [5]; 3.16 µM in [6]. The GI50 in [7] is 10.7 µM; in test [8] it was 18.3 µM; in [9], 5.23 µM; in test [10] it was 4.79 µM. Besides, the TGI in test [1] is more than 100 µM; in [2] it was 7.79 µM; in test [3], 21.2 µM; in test [4], 34.3 µM; in test [5], 28.4 µM; in test [6] it was 15.2 µM. For the same molecule, the TGI in test [7] amounted to 42 µM; in test [8], 38.1 µM; in test [9] it was 16 µM; in test [10], 24.4 µM.

The values above are taken from PubChem BioAssay (NCI).
